The values that follow come from patent US10233151B2, “Use of a novel 3-aryl-4-catechol-pyrrole-N-propanol compound and the derivatives thereof to treat cancer and diseases related to excessive angiogenesis” (Centre National de la Recherche Scientifique (CNRS), priority 2014, dated 2019).

Assay [1] relates to caspases 3 and 7 in HL60 cells. The assay can be described thus: Caspase 3 and 7 activity (ApoONE test), HL60. It counts as cell-based. Conditions: HL60, normoxia, 24 hours, 1 μM to 50 μM. Here is the method:
(§1) In order to specify whether compound (1) leads to apoptotic cell death, the activity of caspases 3 and 7, marker enzymes of apoptosis, was measured using the ApoONE test (Promega) in HCT-116, U87 and HL60 cells treated in normoxia for 24 hours with compound (1) at concentrations varying from 1 μM to 50 μM.

For assay [2], the system named is HCT-116 cells. In words: VEGF secretion by ELISA, HCT-116 culture supernatant. It counts as cell-based. The following applies: HCT-116, normoxic and hypoxic (2% O2) conditions, concentrations of 5 to 50, 24 hours. Here is the method:
(§2) At the tenth day of embryonic development, glioblastoma cells (U87, 5×10^6 in 20 μL) were deposited on the chorioallantoic membrane. Two days after the graft, compound (1) at a concentration of 50 μM in a volume of 20 μL was deposited on the surface of the tumor formed. This treatment was repeated every 24 hours for 5 days. The control group was treated with solvent. The test was carried out on 20 eggs bearing glioblastoma tumors for each group. Images of the tumors were taken at day 3 (24 hours after treatment), at day 5 (3 days after treatment) and at day 7 (5 days after treatment) of tumor development. […] In order to determine the antiangiogenic mechanism of compound (1), VEGF was assayed by the ELISA method (Invitrogen, Novex technology), from the culture supernatant of U87 and HCT-116 cells, under normoxic and hypoxic conditions.
A general note: In an ELISA, binding on a coated surface is turned into a signal by an enzyme label.

The test system of assay [3] is U87 cells. The assay can be described thus: Cell growth test (CellTiter-Blue), U87. In kind it is cell-based. The following applies: Homo sapiens, U-87 MG; U87, normoxia, 72 hours; read-out: IC50 (50% decrease in cell growth). Here is the method:
(§3) The biological activity of compound (1), as well as that of its structural analogues, was studied in vitro on 7 different cancer cell lines: • HCT-116 (colorectal cancer) • U87 (glioblastoma) • K562 (myeloid leukemia) and K562 R • MDA-MB 231 (mammary adenocarcinoma) • MCF-7 (mammary adenocarcinoma) • A549 (pulmonary alveolar adenocarcinoma)
(§4) The cells selected for this study were incubated at 37° C. in the presence of compound (1) added in the culture medium at various concentrations and at various times. The set of experiments carried out made it possible to determine the degree of cytotoxicity of the compound tested (IC50), its capacity to induce cell death by apoptosis, in close dependence on extracellular superoxide anion for its activation.
(§5) The effect of compound (1) on the growth of HCT-116, U87, K562, K562R, MDA-MB 231, MCF-7 and A549 cells, cultured in normoxia, was evaluated using a cell growth test (CellTiter-Blue™ Cell Viability Assay, Promega).

Assay [4] has as its system HCT-116 cells. The assay can be described thus: Condensed chromatin (Hoechst 33258) after SOD pretreatment. It counts as cell-based. The following applies: HCT-116, SOD1 50 U/ml pretreatment, normoxia. Here is the method: (§6) In order to determine the role of superoxide anion, produced by the cells, in the activation of compound (1), HCT-116 cells were pretreated for 1 hour with the enzyme superoxide dismutase (SOD1) at 50 U/ml, then treated with compound (1). The cells were analyzed to evaluate, firstly, cell survival in normoxia (72 hours of treatment) and in hypoxia (48 hours of treatment). Secondly, the formation of condensed chromatin in normoxia and the activity of caspases 3 and 7 in normoxia were evaluated.

The test system of assay [5] is A549 cells. In words: Cell growth test (CellTiter-Blue), A549. In kind it is cell-based. Conditions: Homo sapiens; A549, normoxia, 72 hours; read-out: IC50 (50% decrease in cell growth). Here is the method:
as §3, §4, §5
For orientation: The colour change of resazurin is a common sign of viable cells or microbes.

In assay [6] the test system is chick embryo chorioallantoic membrane. In words: In ovo physiological angiogenesis on chick embryo chorioallantoic membrane. It counts as in vivo. Conditions: 20 μL of 50 μM solution on CAM, seventh day of embryonic development. Here is the method:
The effect of compound (1) on physiological angiogenesis was evaluated using the chick embryo chorioallantoic membrane (CAM) model which constitutes a richly vascularized tissue.
At the seventh day of embryonic development, 20 μL of the 50 μM solution of compound (1) was deposited on the chorioallantoic membrane whereas the control membranes were treated with solvent.

The test system of assay [7] is endothelial cells (HUVEC). The assay can be described thus: Survival of endothelial cells in proliferative or quiescent phase. In kind it is cell-based, human. Conditions: 48 hours. Here is the method: In order to understand the difference in the observed effects of compound (1) according to whether the vasculature is already formed or is growing “de novo”, vascular endothelial cells were cultured at two different cell densities so as to obtain proliferative phase cells or quiescent cells, then treated or not by compound (1), at 10 μM (IC50 value: 8 μM) for 48 hours. […] Compound (1) may thus be used to treat diseases associated with excessive and abnormal angiogenesis, like cancer or ARMD.

The test system of assay [8] is caspases 3 and 7 in HCT-116 cells. The assay can be described thus: Caspase 3 and 7 activity (ApoONE test), HCT-116. It counts as cell-based. Here is the method: as §1, §6
Assay [9] relates to human glioblastoma (U87) grafted onto the chick embryo chorioallantoic membrane. The assay can be described thus: In ovo tumor angiogenesis, glioblastoma grafted onto chick embryo chorioallantoic membrane (CAM). In kind it is in vivo. Conditions: 50 μM, 20 μL on tumor every 24 hours. Here is the method:
The effect of compound (1) on tumor angiogenesis was evaluated using the in ovo model based on human tumor grafted onto chick embryo chorioallantoic membrane (CAM).
This experimental approach makes it possible in only a few days to evaluate the tumor's progression and level of vascularization.
as §2

Assay [10] concerns K562R cells. The assay can be described thus: Cell growth test (CellTiter-Blue), K562R. In kind it is cell-based. Conditions: Homo sapiens, K-562R, normoxia, 72 hours, read-out: IC50 (50% decrease in cell growth). Here is the method: as §3, §4, §5
Assay [11] deals with HCT-116 cells. The assay can be described thus: Cellular superoxide anion signal, DHE probe, HPLC-fluorimetry. It counts as cell-based. The following applies: HCT-116, 50 μM for 3 hours, DHE 10 μM 20 minutes, normoxia. Here is the method: The effect of compound (1) on superoxide anion was studied following the treatment of HCT-116 cells with 50 μM compound (1) for 3 hours and followed by incubation with the probe dihydroethidium (DHE) (10 μM) for 20 minutes. After removing the culture medium and washing with ice-cold DPBS, the cells were collected in 1 ml of cold DPBS. After centrifugation at 1000 g for 5 minutes, the pellet was taken up in 150 μl of PBS with Triton X100 (0.1%), shaken and centrifuged at 1000 g for 5 minutes. The supernatant was mixed with a 0.2 M solution of HClO4 in methanol, shaken and placed on ice for 2 hours. After centrifugation at 20000 g for 30 minutes, the supernatant is analyzed by HPLC coupled with fluorescence (λex=510 nm, λcm=595 nm). In the untreated cells (continuous line), the first peak at tR=5.16 minutes corresponds to the oxidized form “E+”, product of oxidation by peroxidases, and the second peak at tR =5.71 minutes to the oxidized form 2-OH E+, specific to the interaction with superoxide anion. In the treated cells, the first peak at tR=5.29 minutes corresponding to the oxidized form “E+” is increased, whereas the second peak at tR=5.71 minutes, corresponding to the oxidized form 2OH E+, specific to the interaction with superoxide anion, was suppressed. […] (FIG. 10).

Take `OCCCn1cc(-c2ccccc2)c(-c2ccc(O)c(O)c2)c1` [compound (1)]: the “activity of caspases 3 and 7” value is listed as “strongest activation” in [1] and “significant activation of both caspases” in assay [8] (HCT-116, normoxia, 24 hours, 1 μM to 50 μM). Further, the VEGF secretion result in [2] is given as “does not modify VEGF secretion”. For the same compound, the IC50 turned out to be 7 µM in assay [3]; 15 µM in [5]; 8 µM in assay [7] (Homo sapiens, HUVEC, read-out: IC50 value, vascular endothelial cells); 12.5 µM in [10]. The “increase in condensed chromatin after SOD pretreatment” value in assay [4] is reported as “completely suppresses the increase in condensed chromatin”. Moreover, in assay [6], the “effect on physiological angiogenesis” value is “absence of the effect”. The “effect on quiescent endothelial cells” value in assay [7] (10 μM, quiescent cells) is reported as “acts only on endothelial cells in the proliferative phase”. In assay [7] (Homo sapiens, HUVEC, 10 μM, proliferative phase), this compound showed an inhibition at 10 µM of 78%. Besides, in assay [8] (HCT-116, SOD1 50 U/ml pretreatment, normoxia), the “activation of caspases 3-7 after SOD pretreatment” value is listed as “completely suppressed”. Moreover, the tumor vascularization result in [9] (after 3 treatments (day 5), also day 7, vs control group) is “inhibition of tumor vascularization”. Besides, the “growth of the treated tumor” value in assay [9] (day 7) is on record as “significant inhibition of the growth of the treated tumor”. Moreover, the “2-OH E+ signal (DHE oxidized by superoxide anion)” value in assay [11] is on record as “inhibition of the 2OH E+ signal”. Besides, the “E+ signal (DHE oxidized by peroxidases or catalase)” value in assay [11] was “increase in the E+ signal”.

What is called IC50 is the concentration needed to halve the response being measured. As a reminder, the inhibition is the change of the read-out against control, counted positive when it falls.
